This assay concerns the target T1, CB2 (Nluc-CB2, tsNluc-CB2) (Homo sapiens, UniProt P34972).
T1 construct: gene CNR2; N-terminal cleaved signal peptide, TwinStrep tag and Nluc or tsNluc
In kind it is binding. The note with it: Nluc-CB2, 20 µM ligand, DDM/CHAPSO/CHS.

T1 sequence (P34972 whole entry): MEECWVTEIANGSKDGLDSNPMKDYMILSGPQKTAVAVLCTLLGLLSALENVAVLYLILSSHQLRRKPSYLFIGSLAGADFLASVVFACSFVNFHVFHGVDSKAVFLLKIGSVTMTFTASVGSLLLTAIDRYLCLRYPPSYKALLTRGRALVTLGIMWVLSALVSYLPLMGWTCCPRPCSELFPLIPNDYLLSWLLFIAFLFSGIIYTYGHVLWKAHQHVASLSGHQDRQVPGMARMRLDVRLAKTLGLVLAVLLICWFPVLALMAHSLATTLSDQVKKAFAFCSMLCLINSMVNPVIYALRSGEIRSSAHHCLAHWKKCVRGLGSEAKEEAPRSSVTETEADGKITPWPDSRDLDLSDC

In the case of `CCCCCCC(C)(C)c1cc(OC)c([C@@H]2C=C(CO)[C@@H]3C[C@H]2C3(C)C)c(OC)c1` [HU308], the dTm entry is “HU308 and SR144528 also produced appreciable increases in thermostability”.

For `Cc1ccc(Cn2nc(C(=O)N[C@@H]3C(C)(C)[C@@H]4CC[C@@]3(C)C4)cc2-c2ccc(Cl)c(C)c2)cc1` [SR144528], the dTm result was “HU308 and SR144528 also produced appreciable increases in thermostability”.

For the origin of these results see paper doi:10.1101/2020.08.05.237982v3, “ThermoBRET: a ligand-engagement nanoscale thermostability assay applied to GPCRs” (biorxiv, 2023).
